Read-outs that look alike come from different tables or passages of the source.
Legend:
[1] = system: Chinese hamster ovary (CHO) cell line; assay: MTT cytotoxicity assay; format: cell-based; conditions: cytotoxicity, MTT, 48 h; N, n = 1, 3; read-out: CHO IC50
Method: 1.6.In vitro cytotoxicity assay
A 3-(4,5-dimethylthiazol-2-yl)-2,5-diphenyltetrazoliumbromide (MTT) assay was used to screen the metal complexes against the mammalian Chinese hamster ovarian (CHO) cell line.
A stock solution of each compound (2 mg/mL) in DMSO was prepared and kept at -20 °C until needed. Emetine was used as a reference drug. A starting concentration of 100 µg/mL was used, and serially diluted ten-fold using a complete medium to give the lowest concentration of 0.001 µg/mL (6 dilutions). The plates containing the CHO cells under drug pressure were […]
Plates containing the drug and cell suspension were developed by adding 25 μL of sterile MTT (Thermo Fisher Scientific) (25 µL) to each well, followed by 4 h […]
of incubation at room temperature in the dark. The plates were then centrifuged, and the supernatant was removed via aspiration. Sample absorbance was read at a wavelength of 540 […]
analysis via GraphPad Prism v.4.0 software. The IC50 values were determined for each compound were determined from the dose-response curves. […]

[2] = Kinetic solubility by HPLC (pH 6.5); conditions: for Aqueous solubility pH 6.5: kinetic, HPLC
Method: 1.7. Kinetic solubility by HPLC (pH 6.5)
Solubility was measured at pH 6.5 using an adapted miniaturized shake-flask method, in 96-well plate format.4,5 Briefly, 4 µL of a 10 mM stock in DMSO was added to a 96-well plate and evaporated using a GeneVac system. Phosphate buffer pH 6.5 was then added to the wells […]
At the end of this incubation, the […]
in the analysis plate. Analysis was then performed by HPLC-DAD and the solubility of each sample was determined from the corresponding calibration curve. […]

[3] = system: PfK1 ABS parasites; format: cell-based, Plasmodium falciparum; conditions: for IC50: ABS, SYBR Green I, 96 h, mean ± S.E.; for RI (resistance index): RI = PfK1 IC50/PfNF54 IC50
Method: (§1) The parasites were incubated under drug […]
(§2) incubation, parasite survival was determined by adding equal volumes of parasite suspension (100 µL) and SYBR Green I lysis buffer (0.2% µL/mL of 10 000x SYBR Green I, 20 mM Tris-HCl, pH 7.5, 5 mM EDTA, 0.008% saponin (w/v) and 0.08% Triton x-100). This was incubated for 1 hour at room temperature in the dark. […]

[4] = system: ABS parasites; assay: Dual point activity against ABS parasites; format: cell-based, Plasmodium falciparum; conditions: single biological repeat
Text: Table S2: Dual point activity of platinum(II) complexes against ABS parasites, early- and late-
stage gametocytes. Values are averaged from technical triplicates performed for a single

[5] = Cyclic voltammetry; format: physicochemical; conditions: for Epa1: anodic peak potential; for Epa1 / Epc1: 0.1 V/s; for Epc1: cathodic peak potential; for Epc2: second nonreversible reduction
Text: It is known that Fe^2+/Fe^3+ redox chemistry has an important role in the bioactivity of ferrocene derivatives.[33] The production of reactive oxygen species (ROS) is one of the modes of action of ferroquine and other ferrocene derivatives[34] and is linked to the correlation between their bioactivity and electrochemical behavior. We determined whether a similar correlation could be made for the mixed-ligand platinum(II) complexes reported herein given that metal centers have the potential to be oxidized and reduced. The electrochemistry of the complexes was studied using cyclic voltammetry (CV), which uses a triangular potential waveform. The CV experiments were performed in either dry MeOH or DMF containing tetrabutylammonium chloride (TBACl) as the supporting electrolyte. The working electrode was glassy carbon with a platinum wire as the counter electrode and Ag/AgCl as the reference. The anodic (Epa) and cathodic (Epc) peak potentials at 0.1 V/s and half-wave potentials (E1/2) were measured (Table 3). All of the tested complexes undergo reversible one-electron Pt^2+/Pt^+ reductions (Figures S38–S46). Complexes C2, C4, and C8 undergo a second nonreversible reduction (Epc2), which is most likely ligand-based and linked to reductions of the substituent on the bpy. Looking at SAR2, the more electron-withdrawing the substituent, the […] the E1/2 (V vs Fe/Fe^+) value was. This trend was expected, as a more electron-withdrawing substituent reduces the electron density around the metal center, making it easier for the metal to be reduced from Pt^2+ to Pt^+. […] This is also the case for other bpy-containing platinum(II) complexes that only undergo reductions.[35],[36] […]
For the cyclic voltammetry experiments a solution of the test compound (1 x 10-3) in DMSO (3 mL) is added to the electrolyte solution (0.1 M tetrabutylammonium chloride (TBACl) in DMSO). The electrochemical measurements were obtained using a Basi Epsilon Eclipse Electrochemical Analyzer Potentiostat and the CV graphs were generated using Excel. The working electrode was glassy carbon (GC) with platinum wire as the counter electrode (CE) and Ag/AgCl as the reference. […]

[6] = Single-point microsomal metabolic stability, mouse; format: in vitro ADME; conditions: for Microsomal metabolic stability (% remaining after 30 min) Mouse: mouse liver microsomes, 1 µM
Method: (§3) 1.8. Microsomal metabolic stability studies […]
(§4) rat IGS, Xenotech), and mouse (male mouse CD1, Xenotech) liver microsomes (0.4 mg/ml) for 30 min at 37 °C. Reactions were quenched by adding ice-cold acetonitrile containing […]
(§5) disappearance of the parent compound. Half-life, clearance, and hepatic excretion ratios were determined using standard equations.6,7 Propranolol. […]

[7] = system: late-stage gametocytes (NF54-PfS16-GFP-Luc); assay: Luciferase reporter assay, late-stage gametocytes; format: cell-based, Plasmodium falciparum; conditions: for LG (% inhibition) 1 µM / LG (% inhibition) 5 µM: single biological repeat
Method: (§6) All the complexes were tested for their early- and late-stage gametocyte activity in a dual-point assay (1 μM and 5 μM). […]
(§7) 1.5.In vitro activity against gametocyte stages
(§8) PfNF54 gametocytes were prepared and isolated according to the method reported by Reader […]
(§9) The in vitro gametocyte activity of the synthesized complexes was determined using a luciferase reporter line-based assay.
(§10) NF54-PfS16-GFP-Luc parasites were used for the stage-specific assessment of gametocytocidal activity. Early-stage gametocyte (stage I-III) experiments were performed on day 5 (representing >90% of early-stage and late-stage gametocyte (stages IV/V) experiments were performed on day 10. In each experiment, assays were set up with the use of 2-3% […]
(§11) Luciferase activity was determined in 30 µL parasite lysates by adding luciferin substrate (30 µL) (Promega Luciferase Assay System) at room temperature. […]

[8] = system: PfNF54 ABS parasites; assay: SYBR Green I-based proliferative assay, PfNF54 ABS parasites; format: cell-based, Plasmodium falciparum; conditions: ABS, SYBR Green I, 96 h; mean ± S.E., N = 3 (no S.E.: N = 1)
Method: as §1, §2

[9] = system: early-stage gametocytes (NF54-PfS16-GFP-Luc); assay: Luciferase reporter assay, early-stage gametocytes; format: cell-based, Plasmodium falciparum; conditions: for EG (% inhibition) 1 µM / EG (% inhibition) 5 µM: single biological repeat; for IC50: early (II/III) gametocytes, luciferase, 48 h, read-out: EG IC50
Method: as §6, §7, §8, §9, §10, §11

[10] = Single-point microsomal metabolic stability, human; format: in vitro ADME; conditions: human liver microsomes; for Microsomal metabolic stability (% remaining after 30 min) Human: 1 µM
Method: as §3, §4, §5

[11] = system: PfNF54; assay: 72 h pLDH assay, PfNF54 (precursor compounds); format: cell-based, Plasmodium falciparum
Method: Lastly, the pharmacological effect of substitution with a methyl group at different positions on the bpy ring was determined (SAR4). Changing from the 4,4′-positions (C2) to the 5,5′-positions (C14) improved the PfNF54 activity by 5-fold, whereas changing to the 6,6′-positions (C15) decreased the activity by 2-fold.

[12] = half-wave potential corrected to ferrocene
[13] = late (IV/V) gametocytes, luciferase, 48 h, read-out: LG IC50

Structure (SMILES) | IC50 [1] [µM] | Aqueous solubility pH 6.5 [2] [μM] | IC50 [3] [µM] | RI (resistance index) [3] | ABS (% inhibition) 1 µM [4] [% inhibition] | ABS (% inhibition) 5 µM [4] [% inhibition] | Epa1 [5] | Epc1 [5] | E1/2 ([5]; half-wave potential) | E1/2 [5, 12] | Epc2 [5] | Microsomal metabolic stability (% remaining after 30 min) Mouse [6] [% remaining] | LG (% inhibition) 1 µM [7] [% inhibition] | LG (% inhibition) 5 µM [7] [% inhibition] | IC50 [7, 13] [µM] | IC50 [8] [µM] | EG (% inhibition) 1 µM [9] [% inhibition] | EG (% inhibition) 5 µM [9] [% inhibition] | IC50 [9] [µM] | Microsomal metabolic stability (% remaining after 30 min) Human [10] [% remaining] | also measured
Cc1cc[n+]2c(c1)-c1cc(C)cc[n+]1[Pt-2]21[O+]=C(c2ccccc2)N=C(N(CCO)CCO)[S]1.[Cl-] [C2] | > 50 | 170 | 0.541 ± 0.044 | 0.4 | 70.9 | 104.0 | –1.074 V | –1.016 V | –1.045 V vs Ag/Ag^+ | –1.585 V vs Fe/Fe^+ | –1.084 V vs Ag/Ag^+ | 72 | 11.3 | 25.5 | > 20 | 1.42 ± 0.276 | 19.9 | 7.9 | > 20 | 70 | –
OCCN(CCO)C1=NC(c2ccccc2)=[O+][Pt-2]2([S]1)[n+]1ccccc1-c1cccc[n+]12.[Cl-] [C3] | > 50 | – | 0.184 ± 0.022 | – | 68.7 | 103.1 | –1.210 V | –1.014 V | – | – | – | 75 | 14.8 | 39.8 | > 20 | 0.142 ± 0.012 | 26.9 | 0.0 | > 20 | 72 | –
COc1cc[n+]2c(c1)-c1cc(OC)cc[n+]1[Pt-2]21[O+]=C(c2ccccc2)N=C(N(CCO)CCO)[S]1.[Cl-] [C4] | > 50 | 195 | 0.164 ± 0.007 | 0.6 | 67.1 | 99.8 | –1.136 V | –1.064 V | –1.100 V vs Ag/Ag^+ | –1.640 V vs Fe/Fe^+ | –1.515 V vs Ag/Ag^+ | 88 | 14.8 | 54.4 | > 20 | 0.266 ± 0.029 | 6.8 | 9.1 | > 20 | 63 | –
OCCN(CCO)C1=NC(c2ccccc2)=[O+][Pt-2]2([S]1)[n+]1ccc(C(F)(F)F)cc1-c1cc(C(F)(F)F)cc[n+]12.[Cl-] [C8] | > 50 | – | – | – | 10.6 | 29.9 | –0.710 V | –0.607 V | – | –1.076 V vs Fe/Fe^+ | –1.272 V vs Ag/Ag^+ | 46 | 80.6 | 85.8 | 0.38 | > 5 | 26.2 | 50.0 | > 20 | 47 | IC50 ([7]; gametocyte stage not specified, read-out: gametocidal activity IC50): < 5 µM
[Cl][Pt-2]([Cl])([Cl])[Cl].[K+].[K+] [K2PtCl4, potassium tetrachloroplatinate] | > 50 | – | – | – | – | – | – | – | – | – | – | – | – | – | – | – | – | – | – | – | inhibition of Pf proliferation ([11]; maximum concentration of 5 μM, PfNF54): did not inhibit Pf proliferation; IC50 ([11]; precursor compounds, 72 h pLDH assay, read-out: PfNF54 IC50): > 5 µM
CS(=O)(=O)c1ccc(-c2cnc(N)c(-c3ccc(C(F)(F)F)nc3)c2)cc1 [MMV390048, reference compound] | – | – | – | – | – | – | – | – | – | – | – | – | – | – | – | – | – | – | – | – | solubility at 24 h ([2]; phosphate buffer, 25 °C, pH 6.5, aqueous buffer, thermodynamic from solid): < 5 µM; remaining at 0.5 h, 1 µM ([6]; male, CD1, mouse liver microsomes, 30 min, read-out: Microsomal metabolic stability (% remaining after 30 min) Mouse): > 95%; remaining at 0.5 h, 1 µM ([10]; both sexes, 30 min, read-out: Microsomal metabolic stability (% remaining after 30 min) Human): > 95%

— paper PMC11912270, “Synthesis and SAR Studies of Acyl-Thiourea Platinum(II) Complexes Yield Analogs with Dual-Stage Antiplasmodium Activity” (ACS Medicinal Chemistry Letters, 2025)
